Data on three molecules can be found in patent US8796180B2, “Aminoquinazoline compounds for combating invertebrate pests” (BASF SE, priority 2009, dated 2014).

Molecules are shown by their SMILES. Some results are limits rather than exact numbers.

Holding throughout (type): in vivo
Data set [1] has as its system Diamondback moth (Plutella xylostella). The data set can be described thus: Diamondback moth leaf-dip test on Chinese cabbage (B.4). The conditions noted are these: test concentration 500 ppm, dipped Chinese cabbage leaves, mortality recorded 24, 72 and 120 hours after treatment, read-out: mortality in comparison with untreated controls. The procedure: B.4 Diamondback moth (Plutella xylostella)
The active compound was dissolved at the desired concentration in a mixture of 1:1 (vol:vol) distilled water:acetone. The test solution was prepared at the day of use.
The activity against Plutella xylostella can be tested by the following experiments:
Leaves of Chinese cabbage were dipped in test solution and air-dried. Treated leaves were placed in petri dished lined with moist filter paper. Mortality was recorded 24, 72, and 120 hours after treatment.

Data set [2] has as its system Tobacco budworm (Heliothis virescens). The data set can be described thus: Tobacco budworm insect diet microtiter test (B.10). The following applies: 120 h, test concentration 800 ppm, egg and larval mortality on insect diet, 5 days. The procedure:
B.10 Tobacco budworm (Heliothis virescens)
For evaluating control of tobacco budworm (Heliothis virescens) the test unit consists of 96-well-microtiter plates containing an insect diet and 15-25 H. virescens eggs. The compounds were formulated using a solution containing 75% v/v water and 25% v/v DMSO. Different concentrations of formulated compounds were sprayed onto the insect diet at 10 μl, using a custom built micro atomizer, at two replications. After application, microtiter plates were incubated at about 28±1° C. and about 80±5% relative humidity for 5 days. Egg and larval mortality was then visually assessed.

The test system of data set [3] is Southern Armyworm (Spodoptera eridania, 2nd instar larvae). The experiment in a line: Southern Armyworm foliar spray test on lima bean plants (B.1). The conditions noted are these: 96 h, assessed 4 days after treatment, read-out: mortality in comparison with untreated controls. The method, then:
B.1 Southern Armyworm (Spodoptera eridania, 2nd instar larvae)
The active compounds were formulated in cyclohexanone as a 10,0000 ppm solution supplied in 1.3 ml ABgene® tubes. These tubes were inserted into an automated electrostatic sprayer equipped with an atomizing nozzle and they served as stock solutions for which lower dilutions were made in 50% acetone: 50% water (v/v). A nonionic surfactant (Kinetic®) was included in the solution at a volume of 0.01% (v/v). Lima bean plants (variety Sieva) were grown 2 plants to a pot and selected for treatment at the 1st true leaf stage. Test solutions were sprayed onto the foliage by an automated electrostatic plant sprayer equipped with an atomizing spray nozzle. The plants were dried in the sprayer fume hood and then removed from the sprayer. Each pot was placed into perforated plastic bags with a zip closure. Ten to 11 armyworm larvae were placed into the bag and the bags zipped closed. Test plants were maintained in a growth room at 25° C. and 20-40% relative humidity for 4 days, avoiding direct exposure to fluorescent light (24 hour photoperiod) to prevent trapping of heat inside the bags. Mortality and reduced feeding were assessed 4 days after treatment, compared to untreated control plants.

For data set [4], the system named is Mediterranean fruitfly (Ceratitis capitata). The data set can be described thus: Mediterranean fruitfly insect diet microtiter test (B.9). The conditions noted are these: 120 h, test concentration 800 ppm, egg and larval mortality on insect diet, 5 days. The procedure: B. 9 Mediterranean fruitfly (Ceratitis capitata)
For evaluating control of Mediterranean fruitfly (Ceratitis capitata) the test unit consisted of microtiter plates containing an insect diet and 50-80 C. capitata eggs. The compounds were formulated using a solution containing 75% v/v water and 25% v/v DMSO. Different concentrations of formulated compounds were sprayed onto the insect diet at 5 μl, using a custom built micro atomizer, at two replications. After application, microtiter plates were incubated at about 28±1° C. and about 80±5% relative humidity for 5 days. Egg and larval mortality was then visually assessed.

Data set [5] relates to Colorado potato beetle (Leptinotarsa decemlineata, adult). The experiment in a line: Colorado potato beetle test on treated eggplant foliage (B.3). The conditions noted are these: test concentration 300 ppm, assessed 4 days after treatment. The procedure: B.3 Colorado potato beetle (Leptinotarsa decemlineata, adult)
The active compounds were formulated in cyclohexanone as a 10,0000 ppm solution supplied in 1.3 ml ABgene® tubes. These tubes were inserted into an automated electrostatic sprayer equipped with an atomizing nozzle and they served as stock solutions for which lower dilutions were made in 50% acetone:50% water (v/v). A nonionic surfactant (Kinetic®) was included in the solution at a volume of 0.01% (v/v). Eggplants were grown 2 plants to a pot and were selected for treatment at the 1st true leaf stage. Test solutions were sprayed onto the foliage by an automated electrostatic plant sprayer equipped with an atomizing spray nozzle. The plants were dried in the sprayer fume hood and then removed from the sprayer. The treated foliage was then cut and removed from the pot and placed in a 5-inch Petri dish lined with moistened filter paper. Five beetle larvae were introduced into each Petri dish and the dish was covered by a Petri dish lid. Petri dishes were maintained in a growth room at 25° C. and 20-40% relative humidity for 4 days, avoiding direct exposure to fluorescent light (24 hour photoperiod) to prevent trapping of heat inside the dishes. Mortality and reduced feeding were assessed 4 days after treatment, compared to untreated control plants.

In general, mortality refers to the share of the test organisms that died. Regarding `CCNc1nc(-c2ccc(Cl)cc2)nc2cc(C(F)(F)F)ccc12` [I-99, [2-(4-Chloro-phenyl)-7-trifluoromethyl-quinazolin-4-yl]ethylamine], the mortality at 500 ppm in data set [1] was not below 50%. Further, the mortality at 800 ppm in data set [2] and in data set [4] was not below 50% each time. The mortality at 300 ppm in data set [3] is not below 50%.
`CCNc1nc(-c2ccc(F)cc2)nc2cc(C(F)(F)F)ccc12` [I-201]: the “mortality in comparison with untreated controls” value in data set [5] is recorded as “at least 50%”.
Consider `CCNc1nc(-c2ccc(C(F)(F)F)cc2)nc2cc(C(F)(F)F)ccc12` [I-209, [2-(4-Trifluoromethylphenyl)-7-trifluoromethyl-quinazolin-4-yl]ethylamine], for which the mortality at 500 ppm in data set [1] is not below 50%. Moreover, the mortality at 800 ppm in data set [2] and in data set [4] was not below 50% throughout.
